Type in all cases: biochemical
The target in experiment [1] is T1, JAK3 (Homo sapiens, UniProt P52333).
T1 construct: purchased Invitrogen
T1 sequence (P52333 1-1124): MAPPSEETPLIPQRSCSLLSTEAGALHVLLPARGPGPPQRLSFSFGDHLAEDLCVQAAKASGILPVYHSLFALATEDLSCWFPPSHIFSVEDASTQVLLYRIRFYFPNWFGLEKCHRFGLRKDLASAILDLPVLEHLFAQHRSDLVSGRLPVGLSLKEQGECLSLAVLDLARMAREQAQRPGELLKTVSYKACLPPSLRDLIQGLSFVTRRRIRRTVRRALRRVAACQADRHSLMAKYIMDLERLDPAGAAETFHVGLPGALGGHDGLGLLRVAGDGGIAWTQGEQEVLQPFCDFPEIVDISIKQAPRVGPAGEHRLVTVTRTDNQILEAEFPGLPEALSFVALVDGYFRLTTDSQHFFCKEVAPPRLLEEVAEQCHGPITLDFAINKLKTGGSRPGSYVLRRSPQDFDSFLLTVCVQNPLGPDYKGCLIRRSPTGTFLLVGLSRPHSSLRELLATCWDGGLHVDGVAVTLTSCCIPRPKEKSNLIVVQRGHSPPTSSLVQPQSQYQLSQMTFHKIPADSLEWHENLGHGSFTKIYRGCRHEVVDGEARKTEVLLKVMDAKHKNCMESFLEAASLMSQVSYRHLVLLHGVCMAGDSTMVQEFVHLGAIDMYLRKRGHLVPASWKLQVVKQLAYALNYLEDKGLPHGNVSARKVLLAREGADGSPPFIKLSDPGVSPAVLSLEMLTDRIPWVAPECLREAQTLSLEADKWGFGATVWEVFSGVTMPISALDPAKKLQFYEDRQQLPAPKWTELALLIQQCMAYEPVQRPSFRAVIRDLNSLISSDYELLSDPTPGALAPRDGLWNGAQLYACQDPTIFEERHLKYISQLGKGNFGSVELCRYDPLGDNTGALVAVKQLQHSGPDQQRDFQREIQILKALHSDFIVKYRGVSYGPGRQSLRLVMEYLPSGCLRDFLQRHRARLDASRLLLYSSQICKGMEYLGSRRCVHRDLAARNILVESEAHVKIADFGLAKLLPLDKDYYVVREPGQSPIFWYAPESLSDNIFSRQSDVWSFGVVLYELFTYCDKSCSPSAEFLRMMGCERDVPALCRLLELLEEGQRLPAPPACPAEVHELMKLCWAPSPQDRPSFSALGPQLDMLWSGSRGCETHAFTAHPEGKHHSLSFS
Put plainly: JAK3 enzyme inhibition test (LANCE method). To be noted: 1 μM test compound; read-out: JAK3 enzyme inhibitory activity (%, 1 μM). An outline of the steps: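 TR-FRET (LANCE) read: 1 h room-temperature reaction, EDTA quench, Eu-anti-phosphotyrosine antibody, emission 665 nm after 340 nm excitation. Added solutions held 12 ng/mL JAK3, 300 nM ULight-JAK1 substrate and 15 μM ATP (pH 7.5 HEPES). Activity expressed against no-enzyme wells defined as full inhibition.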
(Time-resolved FRET reads energy transfer from a long-lived donor to a nearby acceptor.)

The target of experiment [2] is T2, JAK2 (Homo sapiens, UniProt O60674).
T2 construct: purchased Invitrogen
Nature of the experiment: JAK2 enzyme inhibition test (LANCE method). The settings on record: 1 μM test compound; read-out: JAK2 enzyme inhibitory activity (%, 1 μM). An outline of the steps:
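TR-FRET (LANCE) read-out, ex 340/em 665 nm with 100 μs delay, after 1 hr room-temperature detection with europium anti-phosphotyrosine antibody and 20 mM EDTA. The preceding 1 hr kinase reaction combined JAK2, ULight-JAK1 substrate and ATP, added as 6 ng/mL, 300 nM and 45 μM solutions; enzyme-free wells defined 100% inhibition.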

The target of experiment [3] is T3, TYK2 (Homo sapiens, UniProt P29597).
T3 construct: purchased Invitrogen
Nature of the experiment: TYK2 enzyme inhibition test (LANCE method). The settings on record: 1 μM test compound; read-out: TYK2 enzyme inhibitory activity (%, 1 μM). An outline of the steps: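 TR-FRET (LANCE) readout: after 1 h room-temperature kinase reaction, EDTA plus 4 nM Eu-labelled anti-phosphotyrosine antibody added, signal at 665 nm (340 nm excitation). Reaction combined TYK2, ULight-JAK1 substrate and ATP, prepared at 375 ng/mL, 300 nM and 30 μM before addition, in pH 7.5 HEPES/MgCl2 buffer; enzyme-free wells define full inhibition.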

Experiment [4] concerns the target T4, JAK1 (Homo sapiens, UniProt P23458).
T4 construct: purchased Invitrogen
Put plainly: JAK1 enzyme inhibition test (LANCE method). To be noted: 1 μM test compound; read-out: JAK1 enzyme inhibitory activity (%, 1 μM). An outline of the steps: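 Inhibition expressed against no-enzyme wells (100% inhibition), from time-resolved fluorescence at 665 nm after Eu-anti-phosphotyrosine antibody/EDTA detection. Kinase reaction ran 1 h at room temperature, pH 7.5 HEPES buffer, ULight-JAK1 substrate and ATP diluted to 300 nM and 150 μM before addition.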

Molecules are shown by their SMILES.

T2 sequence (O60674 whole entry): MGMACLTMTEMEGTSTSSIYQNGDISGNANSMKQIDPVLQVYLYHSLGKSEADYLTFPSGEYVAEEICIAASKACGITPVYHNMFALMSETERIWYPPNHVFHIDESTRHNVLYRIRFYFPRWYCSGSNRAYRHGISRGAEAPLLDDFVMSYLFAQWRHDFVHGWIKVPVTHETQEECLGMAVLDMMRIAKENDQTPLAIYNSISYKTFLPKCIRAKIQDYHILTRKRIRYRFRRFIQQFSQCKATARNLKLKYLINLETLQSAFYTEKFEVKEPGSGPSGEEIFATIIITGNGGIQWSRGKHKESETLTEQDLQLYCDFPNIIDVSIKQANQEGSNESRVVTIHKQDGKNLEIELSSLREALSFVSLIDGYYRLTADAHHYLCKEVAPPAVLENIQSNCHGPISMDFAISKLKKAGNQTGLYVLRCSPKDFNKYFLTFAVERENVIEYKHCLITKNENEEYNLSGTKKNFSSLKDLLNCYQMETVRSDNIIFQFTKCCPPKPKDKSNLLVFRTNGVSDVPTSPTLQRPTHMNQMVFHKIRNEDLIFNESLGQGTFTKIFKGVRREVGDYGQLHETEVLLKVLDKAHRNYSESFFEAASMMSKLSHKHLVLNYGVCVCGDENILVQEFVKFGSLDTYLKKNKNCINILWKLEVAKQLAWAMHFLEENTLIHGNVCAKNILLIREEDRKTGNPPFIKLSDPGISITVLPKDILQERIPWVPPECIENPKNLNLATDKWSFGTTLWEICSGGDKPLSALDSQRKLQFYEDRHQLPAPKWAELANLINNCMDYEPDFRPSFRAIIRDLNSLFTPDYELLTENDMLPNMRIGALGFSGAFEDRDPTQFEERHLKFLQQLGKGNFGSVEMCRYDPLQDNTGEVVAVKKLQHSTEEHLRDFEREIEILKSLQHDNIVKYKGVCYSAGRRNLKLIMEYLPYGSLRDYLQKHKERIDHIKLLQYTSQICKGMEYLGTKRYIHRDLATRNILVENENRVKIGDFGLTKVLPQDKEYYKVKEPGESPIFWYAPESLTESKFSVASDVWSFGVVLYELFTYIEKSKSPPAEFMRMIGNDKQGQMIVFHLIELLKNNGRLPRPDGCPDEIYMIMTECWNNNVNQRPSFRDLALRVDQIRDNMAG
T4 sequence (P23458 whole entry): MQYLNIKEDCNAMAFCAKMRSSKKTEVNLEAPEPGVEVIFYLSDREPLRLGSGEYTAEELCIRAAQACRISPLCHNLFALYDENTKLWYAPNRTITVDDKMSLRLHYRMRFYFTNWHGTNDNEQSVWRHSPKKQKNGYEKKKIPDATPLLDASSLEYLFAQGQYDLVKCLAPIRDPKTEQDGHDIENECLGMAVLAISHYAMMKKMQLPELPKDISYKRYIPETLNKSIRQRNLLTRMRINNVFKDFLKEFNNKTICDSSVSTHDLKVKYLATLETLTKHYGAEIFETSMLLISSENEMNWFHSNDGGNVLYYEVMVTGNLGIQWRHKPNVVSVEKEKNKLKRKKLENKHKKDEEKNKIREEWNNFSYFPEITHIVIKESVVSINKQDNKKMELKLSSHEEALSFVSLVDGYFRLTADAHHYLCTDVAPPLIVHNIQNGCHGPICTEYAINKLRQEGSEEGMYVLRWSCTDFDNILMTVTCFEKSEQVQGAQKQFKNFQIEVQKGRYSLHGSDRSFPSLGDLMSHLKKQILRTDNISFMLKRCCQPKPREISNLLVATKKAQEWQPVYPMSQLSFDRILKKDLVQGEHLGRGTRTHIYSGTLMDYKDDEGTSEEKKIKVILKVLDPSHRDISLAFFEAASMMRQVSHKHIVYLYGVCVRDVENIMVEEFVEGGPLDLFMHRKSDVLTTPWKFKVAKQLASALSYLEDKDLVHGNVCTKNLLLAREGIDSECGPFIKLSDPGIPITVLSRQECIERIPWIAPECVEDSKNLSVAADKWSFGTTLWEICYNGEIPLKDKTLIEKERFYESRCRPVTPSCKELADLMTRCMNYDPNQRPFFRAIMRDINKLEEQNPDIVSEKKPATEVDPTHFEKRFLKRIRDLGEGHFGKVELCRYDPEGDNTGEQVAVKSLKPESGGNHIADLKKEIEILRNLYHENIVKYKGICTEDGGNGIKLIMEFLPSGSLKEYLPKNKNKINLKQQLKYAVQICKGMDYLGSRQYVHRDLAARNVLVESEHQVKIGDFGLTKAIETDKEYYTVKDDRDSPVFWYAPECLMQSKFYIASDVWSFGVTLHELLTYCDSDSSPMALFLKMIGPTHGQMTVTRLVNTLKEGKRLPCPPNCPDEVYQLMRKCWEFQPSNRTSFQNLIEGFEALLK
T3 sequence (P29597 whole entry): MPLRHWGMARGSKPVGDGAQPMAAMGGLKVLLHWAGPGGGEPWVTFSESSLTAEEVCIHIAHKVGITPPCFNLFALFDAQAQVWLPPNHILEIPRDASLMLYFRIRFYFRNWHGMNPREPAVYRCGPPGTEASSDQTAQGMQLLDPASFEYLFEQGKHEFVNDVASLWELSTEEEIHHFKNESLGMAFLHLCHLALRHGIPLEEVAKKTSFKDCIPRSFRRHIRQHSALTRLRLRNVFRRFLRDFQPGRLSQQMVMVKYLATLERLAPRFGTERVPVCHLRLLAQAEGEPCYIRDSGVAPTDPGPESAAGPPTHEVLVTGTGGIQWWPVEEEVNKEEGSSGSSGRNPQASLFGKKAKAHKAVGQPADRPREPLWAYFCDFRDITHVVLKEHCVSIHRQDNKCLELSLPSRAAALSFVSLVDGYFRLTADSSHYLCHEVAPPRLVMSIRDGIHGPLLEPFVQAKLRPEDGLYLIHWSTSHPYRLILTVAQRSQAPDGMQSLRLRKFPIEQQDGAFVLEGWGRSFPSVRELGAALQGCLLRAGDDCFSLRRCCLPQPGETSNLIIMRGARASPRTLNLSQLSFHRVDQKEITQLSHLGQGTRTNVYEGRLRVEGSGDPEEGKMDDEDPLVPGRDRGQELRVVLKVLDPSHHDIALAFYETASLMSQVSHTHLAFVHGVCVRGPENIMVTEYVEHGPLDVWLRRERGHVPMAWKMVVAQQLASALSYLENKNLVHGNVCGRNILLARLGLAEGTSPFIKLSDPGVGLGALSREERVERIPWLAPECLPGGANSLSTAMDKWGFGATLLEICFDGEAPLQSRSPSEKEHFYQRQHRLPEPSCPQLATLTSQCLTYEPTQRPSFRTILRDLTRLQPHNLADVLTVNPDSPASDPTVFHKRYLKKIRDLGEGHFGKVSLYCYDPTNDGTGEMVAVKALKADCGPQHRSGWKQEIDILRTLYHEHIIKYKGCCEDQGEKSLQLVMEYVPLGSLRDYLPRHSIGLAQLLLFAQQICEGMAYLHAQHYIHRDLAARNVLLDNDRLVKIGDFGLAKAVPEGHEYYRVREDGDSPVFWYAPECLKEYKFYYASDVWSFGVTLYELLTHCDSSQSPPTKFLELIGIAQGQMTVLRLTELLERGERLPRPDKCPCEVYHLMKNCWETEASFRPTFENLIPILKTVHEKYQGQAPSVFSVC

Consider `Cn1nc(-c2cn(C(C3CC3)C3CC3)c(=O)c3c(N)n[nH]c23)cc1N1CCC(F)(F)C1` [Example 170, 3-amino-5-(dicyclopropylmethyl)-7-(5-(3,3-difluoropyrrolidin-1-yl)-1-methyl-1H-pyrazol-3-yl)-1,5-dihydro-4H-pyrazolo[4,3-c]pyridin-4-one], for which the inhibition at 1 µM in experiment [1] is 99%; in experiment [2], 99%; in experiment [3], 98%; in experiment [4], 99%.
Turning to `Cn1nc(-c2cn(C(C3CC3)C3CC3)c(=O)c3c(N)n[nH]c23)cc1C1=CCCCC1` [Example 147, 3-amino-7-(5-(cyclohex-1-en-1-yl)-1-methyl-1H-pyrazol-3-yl)-5-(dicyclopropylmethyl)-1,5-dihydro-4H-pyrazolo[4,3-c]pyridin-4-one], the inhibition at 1 µM in experiment [1] is 103%; in experiment [2], 101%; in experiment [3] it was 110%; in experiment [4], 101%.
With `CC(C)[C@H](C)n1cc(-c2cc(C3(O)CCC(F)(F)CC3)n(C)n2)c2[nH]nc(N)c2c1=O` [Example 37, 3-amino-7-(5-(4,4-difluoro-1-hydroxycyclohexyl)-1-methyl-1H-pyrazol-3-yl)-5-((2S)-3-methylbutan-2-yl)-1,5-dihydro-4H-pyrazolo[4,3-c]pyridin-4-one], the inhibition at 1 µM in experiment [1] worked out at 100%; in experiment [2], 99%; in experiment [3], 99%; in experiment [4] it was 98%.
Consider `COC1(c2cc(-c3cn([C@@H](C)C(C)C)c(=O)c4c(N)n[nH]c34)nn2C)CN(C(=O)C(C)C)C1` [Example 111, 3-amino-7-(5-(1-isobutyryl-3-methoxyazetidin-3-yl)-1-methyl-1H-pyrazol-3-yl)-5-((2S)-3-methylbutan-2-yl)-1,5-dihydro-4H-pyrazolo[4,3-c]pyridin-4-one], for which the inhibition at 1 µM came out at 98% in experiment [1], 97% in experiment [2], 100% in experiment [3] and 83% in experiment [4].
Taken in the same sequence, the figures for `CC(=O)N(C)C[C@H]1CCCN1c1cc(-c2cn(C(C3CC3)C3CC3)c(=O)c3c(N)n[nH]c23)nn1C` [Example 175, N-(((2R)-1-(3-(3-amino-5-(dicyclopropylmethyl)-4-oxo-4,5-dihydro-1H-pyrazolo[4,3-c]pyridin-7-yl)-1-methyl-1H-pyrazol-5-yl)pyrrolidin-2-yl)methyl)-N-methylacetamide] were 98%, 97%, 98% and 96%.
`CC(C)[C@H](C)n1cc(-c2cc(N3CCC(C)(O)C3)n(C)n2)c2[nH]nc(N)c2c1=O` (stereo partly drawn) [Example 33, 3-amino-7-(5-(3-hydroxy-3-methylpyrrolidin-1-yl)-1-methyl-1H-pyrazol-3-yl)-5-((2S)-3-methylbutan-2-yl)-1,5-dihydro-4H-pyrazolo[4,3-c]pyridin-4-one]: the inhibition at 1 µM in experiment [1] was 99%; in experiment [2], 98%; in experiment [3] it was 99%; in experiment [4], 96%.
Consider `COC1(c2cc(-c3cn(-c4c(F)cccc4F)c(=O)c4c(N)n[nH]c34)nn2C)CN(S(C)(=O)=O)C1` [Example 132, 3-amino-5-(2,6-difluorophenyl)-7-(5-(3-methoxy-1-(methylsulfonyl)azetidin-3-yl)-1-methyl-1H-pyrazol-3-yl)-1,5-dihydro-4H-pyrazolo[4,3-c]pyridin-4-one], for which the inhibition at 1 µM in experiment [1] amounted to 99%; in experiment [2], 98%; in experiment [3], 100%; in experiment [4], 94%.
Taken in the same sequence, the figures for `CC(C)[C@H](C)n1cc(-c2cc(N3CCCC3)n(C)n2)c2[nH]nc(N)c2c1=O` [Example 27, 3-amino-5-((2S)-3-methylbutan-2-yl)-7-(1-methyl-5-(pyrrolidin-1-yl)-1H-pyrazol-3-yl)-1,5-dihydro-4H-pyrazolo[4,3-c]pyridin-4-one] were 100%, 98%, 100% and 98%.
As for `COC[C@H]1CCCN1c1cc(-c2cn([C@@H](C)C(C)C)c(=O)c3c(N)n[nH]c23)nn1C` [Example 135, 3-amino-7-(5-((2R)-2-(methoxymethyl)pyrrolidin-1-yl)-1-methyl-1H-pyrazol-3-yl)-5-((2S)-3-methylbutan-2-yl)-1,5-dihydro-4H-pyrazolo[4,3-c]pyridin-4-one], the inhibition at 1 µM is 99% in experiment [1], 98% in experiment [2], 100% in experiment [3] and 96% in experiment [4].
Taken in the same sequence, the figures for `CN(C)[C@@H]1CCN(c2cc(-c3cn(-c4c(F)cccc4F)c(=O)c4c(N)n[nH]c34)nn2C)C1` [Example 125, 3-amino-5-(2,6-difluorophenyl)-7-(5-((3R)-3-(dimethylamino)pyrrolidin-1-yl)-1-methyl-1H-pyrazol-3-yl)-1,5-dihydro-4H-pyrazolo[4,3-c]pyridin-4-one] were 99%, 98%, 99% and 98%.
As for `CC(C)C(C)n1cc(-c2cc(C(C)(C)O)n(C)n2)c2[nH]nc(N)c2c1=O` (centres unmarked) [Example 2, 3-amino-7-(5-(2-hydroxypropan-2-yl)-1-methyl-1H-pyrazol-3-yl)-5-(3-methylbutan-2-yl)-1,5-dihydro-4H-pyrazolo[4,3-c]pyridin-4-one], the inhibition at 1 µM was 99% in experiment [1], 98% in experiment [2], 99% in experiment [3] and 97% in experiment [4].
For `CC(C)[C@H](C)n1cc(-c2cc(N3CC4(COC4)C3)n(C)n2)c2[nH]nc(N)c2c1=O` [Example 105, 3-amino-5-((2S)-3-methylbutan-2-yl)-7-(1-methyl-5-(2-oxa-6-azaspiro[3.3]hept-6-yl)-1H-pyrazol-3-yl)-1,5-dihydro-4H-pyrazolo[4,3-c]pyridin-4-one], the inhibition at 1 µM in experiment [1] was 99%; in experiment [2], 99%; in experiment [3], 99%; in experiment [4], 97%.
Take `CC(C)C(C#N)n1cc(-c2cc(N3CCOCC3)n(C)n2)c2[nH]nc(N)c2c1=O` (racemic) [Example 112, 2-(3-amino-7-(1-methyl-5-(morpholin-4-yl)-1H-pyrazol-3-yl)-4-oxo-1,4-dihydro-5H-pyrazolo[4,3-c]pyridin-5-yl)-3-methylbutanenitrile]: the inhibition at 1 µM in experiment [1] was determined as 99%; in experiment [2], 98%; in experiment [3], 100%; in experiment [4], 98%.
As for `CC(C)C(C1CC1)n1cc(-c2cc(N3CCOCC3)n(C)n2)c2[nH]nc(N)c2c1=O` (centres unmarked) [Example 115, 3-amino-5-(1-cyclopropyl-2-methylpropyl)-7-(1-methyl-5-(morpholin-4-yl)-1H-pyrazol-3-yl)-1,5-dihydro-4H-pyrazolo[4,3-c]pyridin-4-one], the inhibition at 1 µM in experiment [1] was found to be 99%; in experiment [2], 91%; in experiment [3], 100%; in experiment [4], 93%.

(Values after patent US9637483B2, “Heterocyclic compound” (TAKEDA PHARMACEUTICAL COMPANY LIMITED, priority 2013, dated 2017).)
